Reference: PubChem BioAssay AID179 (DTP/NCI, 2004)
Active and inactive are the calls of the source.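 The calls were made as follows: active = compounds giving half or more protection of infected cells from virus-caused growth loss, again on retest; inactive = the rest.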 Where a SMILES comes first, the peptide text is derived from it. [ ]: non-standard residue; d: D form. The star is where a group is joined. Phe(4-NO2) = N[CH](Cc1ccc([N+](=O)[O-])cc1)C(=O)O; Cbz = O=C(OCc1ccccc1)*

Test system: CEM cells HIV-1 protection, formazan growth assay
Assay: NCI AIDS Antiviral Assay
Conditions: for IC50: measured here: growth of uninfected CEM cells
How it was run: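 Screen of anti-HIV-1 activity in human CEM cells using a formazan-based growth measurement at five drug concentrations. Hits with 50% or greater protection were repeated, and confirmation required reproducible complete protection.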

| SMILES | outcome | EC50 | IC50 |
| --- | --- | --- | --- |
| CC1CCOC(Sc2ccccc2)C1 (centres undefined) | inactive |  |  |
| CN1C(=O)C2(C#N)C3(CCCC3)C2(C#N)C1=O (centres undefined) |  | > 43.7 µM | > 43.7 µM |
| Nc1nnc(N)n1NC(=O)C(=O)Nc1ccc([N+](=O)[O-])cc1 |  | > 151 µM | > 151 µM |
| Cc1ccc(S(=O)(=O)NCCSCCSCCNS(=O)(=O)c2ccc(C)cc2)cc1 |  | > 38.9 µM | > 38.9 µM |
| COc1ccc2c(c1)C(=O)CC(c1ccccc1)O2 (centres undefined) |  | > 200 µM | > 200 µM |
| CC(C)CCCC(C)N (centres undefined) |  | > 200 µM | > 200 µM |
| COC(=O)/C=C\C(C#N)(C#N)N=Cc1ccsc1 |  | > 2 µM | 0.759 µM |
| CN1C/C(=C\c2cccs2)C(=O)/C(=C/c2cccs2)C1 |  | > 200 µM | 14.1 µM |
| CC(C)C(O)C(=O)C(Sc1ccccc1)C(C)C (centres undefined) |  | > 355 µM | 240 µM |
| Cn1cc(C(=O)/C(Cl)=C(\Cl)C(=O)O)c2ccccc21 | inactive |  |  |
| NC(=O)N/N=C(/c1nc2ccc([N+](=O)[O-])cc2[nH]c1=O)C(O)c1ccco1 (centres undefined) |  | > 182 µM | > 182 µM |
| COc1cc([C@@H]2c3cc4c(cc3[C@H](O)[C@H]3COC(=O)[C@H]23)OCO4)cc(OC)c1OC |  | > 2.29 µM | 0.00479 µM |
| CC1CN1c1c(C(=O)/C=C/c2ccc(F)cc2)c(-c2ccccc2)nn(C)c1=O (centres undefined) |  | > 120 µM | 11 µM |
| COC(=O)c1ccc(N=NN(C)COc2ccc(C#N)cc2)cc1 |  | > 200 µM | 81.3 µM |
| O=C(N/N=C1\CCc2ccccc2C1)N/N=C1\CCc2ccccc2C1 |  | > 200 µM | 51.3 µM |
| CC(C)(C)N/N=C(\C(=O)Nc1cccc(Cl)c1)C1C(=O)Nc2ccccc2S1=O (centres undefined) | inactive |  |  |
| O=C1C/C(=C/c2ccc(/C=C3/CC(=O)N(c4cccc(Br)c4)C3=O)cc2)C(=O)N1c1cccc(Br)c1 |  | > 11.2 µM | > 11.2 µM |
| CC1=C[C@H]2C[C@@]3(C)O[C@@H]([C@]4(C)CC[C@H]([C@@H](C)C(=O)O)OO4)CC3C(C)(C)[C@H]2CC1 (some centres undefined) | inactive |  |  |
| N#CC1=C(c2ccccc2)C(=C2Nc3ccccc3N2)C2S/C(=C\c3ccccc3)C(=O)N2C1=N (centres undefined) |  | > 2.19 µM | > 2.19 µM |
| Cc1nc(NCc2ccccc2)c2cc[nH]c2n1 |  | > 174 µM | 107 µM |
| Cc1cc(C)c(C#N)c(SC(=S)NC(=O)c2ccccc2)n1 |  | 158 µM | > 200 µM |

| SMILES | outcome | EC50 | IC50 |
| --- | --- | --- | --- |
| N#C/C(C(=S)NCc1ccccc1)=C1/Nc2ccccc2O1 |  | > 200 µM | 33.1 µM |
| CCC1=C(C)/C(=C/c2[nH]c(CBr)c(CC)c2C)N=C1CBr | inactive |  |  |
| C=C1C(=O)O[C@@H]2C=C(C)C3=CC(=O)[C@](C)(C[C@H](OC(=O)/C(C)=C\C)[C@@H]12)O3 |  | > 5.37 µM | 0.224 µM |
| Cn1cnc(CCc2ccccc2)n1 |  | > 1120 µM | > 1120 µM |
| CN(C(=O)Cc1ccccc1)n1cnn(CC(=O)OC(C)(C)C)c1=S |  | > 200 µM | > 200 µM |
| CCOP(=O)(OCC)/C(C#N)=C/c1ccc(C)o1 |  | > 933 µM | 129 µM |
| CC(C)(C)[Si](C)(C)OCC1=C(CC#N)C(O[Si](C)(C)C(C)(C)C)C(n2ccc(=O)[nH]c2=O)O1 (centres undefined) |  | > 200 µM | 9.33 µM |
| Cc1cc(Cl)c(O)c(-c2cc(-c3cccc([N+](=O)[O-])c3)c3c(N)[nH]c(=S)nc3n2)c1 |  | > 200 µM | 3.89 µM |
| CC(=O)N=C1N(/C=C2\C(=O)Oc3ccccc3C2=O)C(=O)/C(=C/c2ccccc2Cl)N1C |  | > 200 µM | 148 µM |
| CCOC(=O)CCC(NC(=O)OCc1ccccc1)C(=O)NC(CCC(=O)OCC)C(=O)NC(Cc1ccc([N+](=O)[O-])cc1)C(=O)NC(CCC(=O)OCC)C(=O)NC(CCC(=O)OCC)C(=O)OCC (centres undefined) (Cbz-E(OEt)E(OEt)[Phe(4-NO2)]E(OEt)E(OEt)-OEt; configuration not given here) |  | > 200 µM | > 200 µM |
| O=C(OC[C@H]1OC(OC(=O)c2ccccc2)C(=O)C2(OC(=O)c3ccccc3)C3C=CC(C3)C12)c1ccccc1 (some centres undefined) | inactive |  |  |
| OC[C@H]1CCCC1O (some centres undefined) | inactive |  |  |
| CCOC(=O)c1ccc(CSc2ccccc2C(=O)OCC)cc1 |  | > 3.02 µM | > 3.02 µM |
| O=C(CCN1CCCCC1)Nc1ccc2c(c1)C(=O)c1ccc(NC(=O)CCN3CCCCC3)cc1C2=O |  | > 200 µM | 1.86 µM |
| CN1CCN(C(=S)N(C(=O)c2cccs2)C2CCCCC2)CC1 |  | > 195 µM | 91.2 µM |
| N#C/C(=C\c1cc(Cl)ccc1O)C1CCC([N+](=O)[O-])CC1 (centres undefined) |  | > 200 µM | 30.2 µM |
| CCn1cnc2c(NC(C)=O)ncnc21 |  | > 200 µM | > 200 µM |
| COC(=O)CCC(=O)Nc1cccc(C(F)(F)F)c1 |  | > 129 µM | > 129 µM |
| COC(=O)c1ccccc1NCc1cc(O)ccc1O |  | > 200 µM | 30.9 µM |
| CCOC(=O)C(NC(=O)c1cccc(Cl)c1)(Nc1ccc(S(=O)(=O)Nc2cc(C)nc(C)n2)cc1)C(F)(F)F (centres undefined) |  | > 200 µM | > 200 µM |
| CCCCCCCCCCCCCCCC(=O)NCC(COP(=O)([O-])OCC[N+](C)(C)C)OC (centres undefined) | inactive |  |  |

| SMILES | outcome | EC50 | IC50 |
| --- | --- | --- | --- |
| NC(=O)NC(=O)c1ccco1 |  | > 200 µM | > 200 µM |
| CC(=O)NC1C(OCc2ccccc2)OC(CO)C(O)C1OC(C)C(=O)N[C@@H](C)C(=O)N[C@H](CCC(=O)OCCNc1c2ccccc2nc2cccc([N+](=O)[O-])c12)C(N)=O (some centres undefined) |  | > 0.02 µM | 0.000339 µM |
| COC(=O)C1(C(=O)OC)N=C(C)OC1c1ccccn1 (centres undefined) |  | > 200 µM | > 200 µM |
| [Ni+2].[O-]/C(=N\N=C/c1ccccc1F)c1ccncc1.[O-]/C(=N\N=C\c1ccccc1F)c1ccncc1 |  | > 100 µM | > 100 µM |
| CCOC(=O)C1=C(C)C2C3C(=O)NC(=O)C3C1(C)C1C(=O)NC(=O)C21 (centres undefined) |  | > 724 µM | > 724 µM |
| COc1ccc(/C=C2\C(=O)NC(=O)c3ccccc32)cc1OC |  | > 60.3 µM | 31.6 µM |
| CN(c1ccccc1)S(=O)(=O)c1cccc([N+](=O)[O-])c1 |  | 50.1 µM | 105 µM |
| CC1(Br)C2c3ccccc3C(c3ccccc32)C1(C)C(Cl)(Cl)Cl (centres undefined) |  | > 16.6 µM | > 16.6 µM |
| NC(=O)c1ccccc1NC(=O)C(=O)Nc1n[nH]c(N)n1 |  | > 871 µM | > 871 µM |
| CCCCCc1cc(CCCC)sc1-c1ccco1 |  | > 200 µM | 145 µM |
| COC(=O)C1=C(O)C(O)=C(C(=O)OC)CC1 |  | 468 µM | 912 µM |
| CC(O)CCCOC(c1ccccc1)(c1ccccc1)c1ccccc1 (centres undefined) |  | > 38.9 µM | > 38.9 µM |
| CNC(=O)Nc1ccc(Cl)cn1 |  | > 200 µM | > 200 µM |
| NCC(=O)NC(CCCC(NC(=O)CN)P(=O)(O)O)P(=O)(O)O (centres undefined) | inactive |  |  |
| Cc1ccc(SCC(CSCCO)OCn2cnc3c2NC(N)=NC32OCCO2)cc1 (centres undefined) |  | > 200 µM | > 200 µM |
| CNC(=S)/C(=N\Nc1nc[nH]c1C(N)=O)C(N)=S |  | > 2 µM | 0.955 µM |
| O=C(NC(=O)c1cn(CCN2CCNCC2)c(=O)[nH]c1=O)OCc1ccccc1 | inactive |  |  |
| COc1ccccc1C1CC(=O)CC(c2ccccc2OC)C12C(=O)NC(=S)NC2=O (centres undefined) |  | > 200 µM | 46.8 µM |
| COc1ccc(/C=C2\N=C(SC)N(CN3CCCCC3)C2=O)cc1 |  | > 200 µM | > 200 µM |
| CCCCCNC(=O)Sc1ccccc1C(=O)N[C@H](C)C(N)=O |  | 1 µM | 123 µM |
